# Columns and labels:
# in vitro [1] = conditions: human, HEK-Blue hNOD2 cells
# in vitro [2] = conditions: human, HEK-Blue hNOD1 cells
# [3] = target: T1, Nucleotide-binding oligomerization domain-containing protein 1 (Homo sapiens, UniProt Q9Y239)
# T1 sequence (Q9Y239 whole entry): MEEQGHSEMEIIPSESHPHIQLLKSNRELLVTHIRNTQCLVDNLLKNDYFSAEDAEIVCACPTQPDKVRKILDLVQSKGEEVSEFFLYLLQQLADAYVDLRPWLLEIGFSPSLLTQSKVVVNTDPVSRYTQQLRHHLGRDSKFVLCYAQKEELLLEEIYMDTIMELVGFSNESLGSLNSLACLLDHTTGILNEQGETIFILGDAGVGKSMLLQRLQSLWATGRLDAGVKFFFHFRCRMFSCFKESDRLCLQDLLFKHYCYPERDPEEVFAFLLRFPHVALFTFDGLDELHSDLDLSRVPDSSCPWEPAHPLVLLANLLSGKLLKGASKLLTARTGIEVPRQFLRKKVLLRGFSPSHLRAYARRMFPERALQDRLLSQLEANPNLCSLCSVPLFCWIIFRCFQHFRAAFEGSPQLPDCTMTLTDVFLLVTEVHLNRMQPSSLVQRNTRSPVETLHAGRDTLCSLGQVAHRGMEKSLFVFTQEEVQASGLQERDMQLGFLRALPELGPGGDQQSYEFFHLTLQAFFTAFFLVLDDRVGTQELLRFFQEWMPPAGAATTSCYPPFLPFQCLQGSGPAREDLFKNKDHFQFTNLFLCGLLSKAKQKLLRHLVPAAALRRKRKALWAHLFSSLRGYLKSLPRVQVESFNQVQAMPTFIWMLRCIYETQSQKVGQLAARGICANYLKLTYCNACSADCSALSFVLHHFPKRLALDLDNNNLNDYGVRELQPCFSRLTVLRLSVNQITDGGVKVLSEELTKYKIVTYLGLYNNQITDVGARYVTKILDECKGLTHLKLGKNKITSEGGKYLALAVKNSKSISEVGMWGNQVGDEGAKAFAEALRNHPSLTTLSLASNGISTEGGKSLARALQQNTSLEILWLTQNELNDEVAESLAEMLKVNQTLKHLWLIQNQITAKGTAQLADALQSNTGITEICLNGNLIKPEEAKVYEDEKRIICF
# Description: Antagonist activity at human NOD1 expressed in HEK-Blue cells coexpressing NF-kappaB-inducible SEAP reporter gene assessed as inhibition of C12-iE-DAP-induced NF-kappaB transcriptional activity by measuring decrease in SEAP activity preincubated for 1 hr followed by C12-iE-DAP addition and measured after 18 hrs by spectrophotometric analysis
# [4] = target: Nucleotide-binding oligomerization domain-containing protein 2 (Homo sapiens, UniProt Q9HC29)
# Nucleotide-binding oligomerization domain-containing protein 2, sequence (Q9HC29 whole entry, the tested form may be a part): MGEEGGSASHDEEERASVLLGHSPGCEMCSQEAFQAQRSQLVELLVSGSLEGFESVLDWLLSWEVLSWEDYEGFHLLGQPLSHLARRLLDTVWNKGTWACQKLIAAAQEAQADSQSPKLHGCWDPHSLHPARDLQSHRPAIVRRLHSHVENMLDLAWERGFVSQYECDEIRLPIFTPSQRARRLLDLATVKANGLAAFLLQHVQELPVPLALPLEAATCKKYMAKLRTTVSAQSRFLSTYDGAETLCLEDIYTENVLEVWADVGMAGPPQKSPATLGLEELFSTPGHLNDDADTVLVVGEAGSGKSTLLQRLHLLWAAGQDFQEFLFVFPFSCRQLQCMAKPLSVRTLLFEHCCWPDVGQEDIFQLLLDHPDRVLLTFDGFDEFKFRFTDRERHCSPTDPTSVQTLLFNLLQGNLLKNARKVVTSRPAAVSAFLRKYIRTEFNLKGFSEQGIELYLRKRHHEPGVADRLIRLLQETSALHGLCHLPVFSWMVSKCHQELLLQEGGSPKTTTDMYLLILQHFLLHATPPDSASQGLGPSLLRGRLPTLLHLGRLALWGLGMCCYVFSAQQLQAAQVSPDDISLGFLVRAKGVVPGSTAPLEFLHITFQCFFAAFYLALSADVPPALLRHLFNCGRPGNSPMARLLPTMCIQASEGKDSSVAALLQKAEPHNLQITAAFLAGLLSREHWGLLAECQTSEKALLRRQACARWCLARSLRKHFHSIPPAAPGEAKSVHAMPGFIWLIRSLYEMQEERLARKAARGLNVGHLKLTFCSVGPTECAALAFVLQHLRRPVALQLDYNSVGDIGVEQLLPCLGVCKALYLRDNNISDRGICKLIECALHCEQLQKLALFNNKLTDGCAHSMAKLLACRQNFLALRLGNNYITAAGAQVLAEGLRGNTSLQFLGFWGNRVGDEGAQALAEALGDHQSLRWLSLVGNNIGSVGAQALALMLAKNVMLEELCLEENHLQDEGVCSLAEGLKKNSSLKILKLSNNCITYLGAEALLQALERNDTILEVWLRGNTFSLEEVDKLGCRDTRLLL
# Description: Antagonist activity at human NOD2 (unknown origin)
Compound,"viability at 18 h, 25 µM (in vitro [1]) [%]","viability at 18 h, 25 µM (in vitro [2]) [%]",IC50 [3] [µM],IC50 [4] [µM]
CC(C)(C)Nc1c(N2CCOCC2)c2ccccc2n1S(=O)(=O)c1ccc([N+](=O)[O-])cc1,≥ 80,≥ 80,–,–
Cc1ccc(S(=O)(=O)n2c(NC3CCCCC3)c(N3CCN(C)CC3)c3cc4ccccc4cc32)cc1,≥ 80,≥ 80,–,–
Cc1ccc(S(=O)(=O)n2c(NC(C)(C)C)c(N3CCN(C)CC3)c3cc4ccccc4cc32)cc1,≥ 80,≥ 80,–,–
CCN(CC)c1c(NC(C)(C)C)n(S(=O)(=O)c2ccc(C)cc2)c2ccccc12,≥ 80,≥ 80,–,–
COC(=O)CNc1c(N2CCOCC2)c2ccccc2n1S(=O)(=O)c1ccc(C)cc1,≥ 80,≥ 80,–,–
Cc1ccc(S(=O)(=O)n2c(NC(C)(C)C)c(N3CCOCC3)c3cc(Cl)ccc32)cc1,≥ 80,≥ 80,–,–
Cc1ccc(S(=O)(=O)n2c(NC3CCCCC3)c(N3CCN(C)CC3)c3ccccc32)cc1,≥ 80,≥ 80,18.5,–
COc1ccc(S(=O)(=O)n2c(NC(C)(C)C)c(N3CCOCC3)c3ccccc32)cc1,≥ 80,≥ 80,–,–
CCN(CC)c1c(NC(C)(C)C)n(S(=O)(=O)c2ccc(C)cc2)c2cccc(C)c12,≥ 80,≥ 80,–,–
Cc1ccc(S(=O)(=O)n2c(NCc3ccccc3)c(N3CCN(C)CC3)c3ccccc32)cc1,≥ 80,≥ 80,–,–
Cc1ccc(S(=O)(=O)n2c(NC(C)(C)C)c(N3CCOCC3)c3ccccc32)cc1,≥ 80,≥ 80,–,–
Cc1ccc(S(=O)(=O)n2c(NC3CC3)c(N3CCOCC3)c3cc(Cl)ccc32)cc1,≥ 80,≥ 80,–,–
Cc1ccc(S(=O)(=O)n2c(NC(C)(C)C)c(N3CCCCC3)c3ccccc32)cc1,≥ 80,≥ 80,–,–
Cc1ccc(S(=O)(=O)n2c(NCc3ccccc3)c(N3CCOCC3)c3ccccc32)cc1,≥ 80,≥ 80,–,–
C#CCN(C)c1c(Nc2ccc3ccccc3c2)n(S(=O)(=O)c2ccc(C)cc2)c2cc(Cl)ccc12,≥ 80,≥ 80,–,–
O=[N+]([O-])c1ccc(S(=O)(=O)n2c(NCc3ccccc3)c(N3CCOCC3)c3ccccc32)cc1,≥ 80,≥ 80,–,–
CCCCCn1c(SCCc2ccccc2)nc2[nH]c(=O)[nH]c(=O)c21,–,–,–,> 20
Cc1ccc(S(=O)(=O)n2c(NCc3ccccc3)c(N3CCN(C)CC3)c3cc4ccccc4cc32)cc1,≥ 80,≥ 80,20.7,–
CCCCCNc1c(N(CC)CC)c2ccccc2n1S(=O)(=O)c1ccc(C)cc1,≥ 80,≥ 80,–,–
CCCCCNc1c(N2CCOCC2)c2ccccc2n1S(=O)(=O)c1ccc(C)cc1,≥ 80,≥ 80,–,–
CCCCCNc1c(N2CCOCC2)c2ccccc2n1S(=O)(=O)c1ccc([N+](=O)[O-])cc1,≥ 80,≥ 80,26.1,–

# From ChEMBL document CHEMBL5528038, “Discovery of 2,3-Diaminoindole Derivatives as a Novel Class of NOD Antagonists” (J Med Chem, 2024)
